Reference: article PMC4669722, “Antitumour potential of BPT: a dual inhibitor of cdk4 and tubulin polymerization” (Cell Death & Disease, 2015)
pIC50: −log10 of the molar value.

Tests used:
[1] = test system: BNL CL2 (mouse embryonic normal hepatic cells); test: Flow cytometric cell cycle analysis, BNL CL2; format: cell-based; conditions: BNL CL2, 48 h, IC50 and IC70 concentrations
Method: The untreated (control) and treated (with test compounds) cells were harvested by trypsinization, washed once with PBS and then fixed in 70% chilled (−20 °C) ethanol for minimum 1 h. After the fixation step, cells were centrifuged for 5 min at 3000 × g at room temperature, and the pellet was suspended in PBS containing 50 μg/ml propidium iodide (Sigma-Aldrich, Dorset, UK; cat. no. P-4170) and 0.5 mg/ml DNase-free ribonuclease (Sigma-Aldrich; cat. no. R-5503). The cells were stained for 1 h in the dark at 4 °C. Cell cycle analysis was performed on the Beckman Coulter (Epics Altra) fluorescence-activated cell sorter (Beckman Coulter UK Ltd, Buckinghamshire, UK). To gate all the events that represent single cells, and not cell doublets or cell clumps, the following analyses were performed on the samples. Cytograms of propidium iodide fluorescence peak signal versus integrated fluorescence or the linear signal were plotted. All data points on the straight line were isolated in a single gate and the gated data was further used for plotting a histogram that represents a complete cell cycle. The total number of events was not allowed to exceed 200 events per s. Data acquisition was stopped after a minimum of 10 000 events had been collected.

[2] = test system: PC-3 (prostate; p53 null, pRb+); test: Cell proliferation (MTT) assay, PC-3; format: cell-based; conditions: Homo sapiens, 48 h, read-out: IC50 cell growth inhibition, PC-3
Method: (§1) All 10 human cancer cell lines were maintained at 37 °C in 5% CO2 in RPMI-1640 medium, supplemented with 10% foetal calf serum and 100 μg/ml normocin. The 10 cancer cell lines used for screening were all obtained from ATCC (Manassas, VA, USA); they were the NSCLC (a form of cancer that is resistant to chemotherapy) lines: NCI-H460 (pRb^+, p53^+), A549 (pRb^+, p53^+), Calu-1 (pRb^+, p53-null), NCI-H1299 (pRb^+, p53-null), NCI-H358 (pRb-null, p53-null); the colon cancer line LS174T (pRb^+, p53^+); the prostate cancer line PC-3 (pRb^+, p53-null); the pancreatic cancer line MiaPaca (pRb^+, p53-mutant). The genotypes within brackets indicate the status of the tumour suppressor proteins pRb and p53. The mouse embryonic normal hepatic cell line (BNL CL2) and its SV40 large T-antigen-transformed counterpart cell line (BNL SV A.8) were also purchased from ATCC. The large T-antigen inactivates the tumour suppressor proteins p53 and pRb. The detailed procedure of cell proliferation (MTT) assay and IC50 determination was described previously.[32]

[3] = test system: Calu-1 (NSCLC; p53 null, pRb+); test: Cell proliferation (MTT) assay, Calu-1; format: cell-based, human
Method: as §1

Cdk6-cyclin D1 = Cdk6-cyclin D1 (Homo sapiens, UniProt Q00534); test: Kinase profiling (Millipore), Cdk6-cyclin D1; format: biochemical
Method: (§2) The in vitro kinase assays for testing against Cdk4-cyclin D1, Cdk2-cyclin A, Cdk1-cyclin B1 and Cdk9-cyclin T1 were performed in-house. The methodology and results have been reported previously.[20], [30], [31], [32], [45] The kinase profiling for 58 representative kinases was carrried out commercially at Millipore Bioscience Division, Livingston, UK.

[4] = test system: p53+ A549 and LS174T cells; test: Western blot of cell cycle proteins in p53+ cells; format: cell-based, human; conditions: IC50 concentration, 24 h
Method: A549, LS174T and MiaPaCa cells were seeded in 25 cm^2 tissue culture flasks in the complete growth medium. […] Cells were harvested by trypsinization, washed in ice-cold PBS and then lysed in buffer (Sigma-Aldrich; cat. no. C-2978) containing protease inhibitor cocktail (Sigma-Aldrich; cat. no. P8340). The lysates were centrifuged at 14 000 r.p.m. (revolutions per minute) for 10 min at 4 °C and the total protein concentrations were estimated in the clear supernatants using the Bradford method. Equal amounts of protein (40 μg) were loaded and electrophoresed on 10% SDS-polyacrylamide gels and blotted on Immobilon-P Transfer Membrane (Millipore; cat. no.IPVH20200). The blots were probed with respective primary antibodies (at 4 °C, overnight) at the following dilutions: cdc2 (New England Biolabs, Hitchin, UK; cat. no. 9110) at 1 : 1000 to detect Cdk1; cyclin B1 (CRUK, London, UK; cat. no. V152) at 1 : 1500 dilution to detect cyclin B1; Pab 1801 (Santa Cruz Biotechnology, Heidelberg, Germany; cat. no. sc-98) at 1 : 500 dilution to detect p53; N-20 (Santa Cruz Biotechnology; cat. no. sc-469) at 1 : 500 dilution to detect p21; C-19 (Santa Cruz Biotechnology; cat. no. sc-528) at 1 : 250 dilution to detect p27; AC-40 (Sigma-Aldrich; cat. no. A4700) at 1 : 2000 dilution to detect actin. Appropriate secondary antibodies conjugated with horseradish peroxidase were used and the protein bands were visualized by chemiluminescence using the ECL Kit (Santa Cruz Biotechnology; cat. no. sc-2048).

Cdk9-cyclin T1 = Cdk9-cyclin T1 (Homo sapiens, UniProt P50750); test: In vitro kinase assay, Cdk9-cyclin T1 (in-house); format: biochemical; conditions: three independent experiments; read-out: IC50 (mean±S.D.), Cdk9-cyclin T1
Method: as §2

[5] = Pharmacokinetics in BALB/c mice; format: in vivo
Method: Oral and intravenous pharmacokinetic studies of BPT were carried out in BALB/c male mice of age 4–6 weeks, by administering BPT orally and intravenous formulation at dose of 10 mg/kg for oral and 1 mg/kg for intravenous. Plasma samples were collected at appropriate time points between the range 0 and 24 h, and analysed by LC-MS-MS. Mean plasma concentration calculated and data were further analysed to determine PK parameters such as t1/2, Cmax, ACU, Vd and CL, using WinNonlin 5.3 software package (Pharsight Company, Princeton, NJ, USA).

IGF-1 R = IGF-1 R (Homo sapiens, UniProt P08069); test: Kinase profiling (Millipore), IGF-1 R; format: biochemical
Method: as §2

[6] = male, mouse, plasma, 1.0 mg/kg intravenous

Chain of Cdk9-cyclin T1 (P50750 whole entry): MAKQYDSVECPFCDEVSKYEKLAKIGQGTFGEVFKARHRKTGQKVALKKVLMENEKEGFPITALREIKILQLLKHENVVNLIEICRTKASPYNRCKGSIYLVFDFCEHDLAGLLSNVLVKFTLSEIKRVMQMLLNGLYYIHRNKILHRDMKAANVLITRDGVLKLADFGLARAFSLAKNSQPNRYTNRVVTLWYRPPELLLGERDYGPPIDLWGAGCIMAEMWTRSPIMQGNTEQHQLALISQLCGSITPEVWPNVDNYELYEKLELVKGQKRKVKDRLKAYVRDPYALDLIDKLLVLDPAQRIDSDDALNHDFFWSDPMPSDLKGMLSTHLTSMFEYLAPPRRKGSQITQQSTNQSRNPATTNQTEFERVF
Chain of Cdk9-cyclin T1 (O60563 whole entry partner): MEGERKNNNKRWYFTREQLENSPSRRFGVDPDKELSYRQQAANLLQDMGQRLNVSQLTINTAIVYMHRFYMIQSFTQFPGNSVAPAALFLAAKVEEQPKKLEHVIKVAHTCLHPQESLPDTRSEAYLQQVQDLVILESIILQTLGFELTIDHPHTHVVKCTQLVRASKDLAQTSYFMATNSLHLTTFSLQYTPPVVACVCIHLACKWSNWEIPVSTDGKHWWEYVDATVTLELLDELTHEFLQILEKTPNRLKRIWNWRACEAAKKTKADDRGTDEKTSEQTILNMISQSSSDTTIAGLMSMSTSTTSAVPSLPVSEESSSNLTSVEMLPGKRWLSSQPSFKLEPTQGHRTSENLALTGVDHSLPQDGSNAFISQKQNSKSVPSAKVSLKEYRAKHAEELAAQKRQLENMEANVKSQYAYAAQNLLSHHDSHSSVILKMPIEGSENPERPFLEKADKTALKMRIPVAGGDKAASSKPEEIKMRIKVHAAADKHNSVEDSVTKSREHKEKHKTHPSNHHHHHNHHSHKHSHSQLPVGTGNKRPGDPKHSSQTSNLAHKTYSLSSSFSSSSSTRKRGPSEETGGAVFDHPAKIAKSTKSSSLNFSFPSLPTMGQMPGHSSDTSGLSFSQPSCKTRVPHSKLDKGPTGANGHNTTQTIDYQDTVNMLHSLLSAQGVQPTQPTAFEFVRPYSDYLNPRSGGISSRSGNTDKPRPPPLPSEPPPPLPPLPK
Chain of IGF-1 R (P08069 31-1367): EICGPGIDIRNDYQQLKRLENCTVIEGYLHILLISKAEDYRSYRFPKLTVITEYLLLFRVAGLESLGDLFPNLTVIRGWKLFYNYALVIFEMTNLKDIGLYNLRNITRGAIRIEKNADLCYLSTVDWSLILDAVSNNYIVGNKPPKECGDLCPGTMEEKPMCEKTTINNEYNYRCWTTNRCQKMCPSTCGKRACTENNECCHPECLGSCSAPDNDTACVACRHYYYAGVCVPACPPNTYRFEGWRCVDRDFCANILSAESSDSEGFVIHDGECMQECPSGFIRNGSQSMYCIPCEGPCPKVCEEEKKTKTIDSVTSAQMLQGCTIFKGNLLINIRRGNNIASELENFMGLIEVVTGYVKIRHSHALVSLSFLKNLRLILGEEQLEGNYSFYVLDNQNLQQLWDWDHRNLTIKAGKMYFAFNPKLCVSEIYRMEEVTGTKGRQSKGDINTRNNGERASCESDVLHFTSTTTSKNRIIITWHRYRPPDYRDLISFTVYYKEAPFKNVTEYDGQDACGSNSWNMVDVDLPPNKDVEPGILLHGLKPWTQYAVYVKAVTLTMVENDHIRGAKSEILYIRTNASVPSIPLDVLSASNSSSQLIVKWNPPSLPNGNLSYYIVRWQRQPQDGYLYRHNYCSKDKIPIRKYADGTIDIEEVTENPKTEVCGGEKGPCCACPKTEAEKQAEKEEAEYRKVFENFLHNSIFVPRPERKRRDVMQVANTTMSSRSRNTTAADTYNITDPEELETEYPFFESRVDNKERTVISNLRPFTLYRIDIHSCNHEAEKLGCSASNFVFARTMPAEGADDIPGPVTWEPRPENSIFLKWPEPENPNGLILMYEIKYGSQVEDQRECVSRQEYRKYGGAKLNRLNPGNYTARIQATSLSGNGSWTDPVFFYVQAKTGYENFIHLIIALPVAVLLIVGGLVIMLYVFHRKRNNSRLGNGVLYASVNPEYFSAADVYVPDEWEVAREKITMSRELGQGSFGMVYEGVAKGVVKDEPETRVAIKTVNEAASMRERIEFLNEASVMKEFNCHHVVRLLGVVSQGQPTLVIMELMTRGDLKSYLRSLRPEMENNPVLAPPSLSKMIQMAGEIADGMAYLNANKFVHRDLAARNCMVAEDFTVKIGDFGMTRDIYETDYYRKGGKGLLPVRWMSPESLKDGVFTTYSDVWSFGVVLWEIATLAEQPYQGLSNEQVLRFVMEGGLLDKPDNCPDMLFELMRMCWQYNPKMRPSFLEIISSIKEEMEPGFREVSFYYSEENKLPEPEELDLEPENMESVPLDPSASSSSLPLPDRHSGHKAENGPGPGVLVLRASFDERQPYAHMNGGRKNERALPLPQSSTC
Chain of Cdk6-cyclin D1 (P24385 whole entry): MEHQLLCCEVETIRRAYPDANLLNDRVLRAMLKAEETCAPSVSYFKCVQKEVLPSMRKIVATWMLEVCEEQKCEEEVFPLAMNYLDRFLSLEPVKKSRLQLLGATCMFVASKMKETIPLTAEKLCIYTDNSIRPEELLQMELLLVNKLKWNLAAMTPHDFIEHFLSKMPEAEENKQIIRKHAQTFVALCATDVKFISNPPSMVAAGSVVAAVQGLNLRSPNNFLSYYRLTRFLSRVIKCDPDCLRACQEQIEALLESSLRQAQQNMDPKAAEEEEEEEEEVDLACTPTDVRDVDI
Chain of Cdk6-cyclin D1 (Q00534 whole entry): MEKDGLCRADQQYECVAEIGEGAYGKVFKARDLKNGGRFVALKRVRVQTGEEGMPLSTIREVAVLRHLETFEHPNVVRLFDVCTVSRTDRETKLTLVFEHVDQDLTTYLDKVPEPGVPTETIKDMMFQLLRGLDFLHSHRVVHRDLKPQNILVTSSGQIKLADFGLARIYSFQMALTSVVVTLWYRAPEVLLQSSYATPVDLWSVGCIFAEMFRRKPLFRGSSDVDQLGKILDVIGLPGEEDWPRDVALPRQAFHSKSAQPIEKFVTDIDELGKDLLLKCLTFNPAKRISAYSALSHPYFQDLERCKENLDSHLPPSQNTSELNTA

Question: For `O=C(c1ccccc1-c1ccccc1)N1CCc2c([nH]c3ccccc23)C1` [BPT, 2-(biphenyl-2-carbonyl)-2,3,4,9-tetrahydro-1H-pyrido[3,4-b]indole], which “cells detected in the sub-G1 phase” value [1] is on record?
Answer: < 10%

Question: And the “normal cells in the G2/M phase” value [1]?
Answer: More than 50%

Question: What about the pIC50 [2] of the same compound?
Answer: 6.13

Question: What about the pIC50 ([3]; Homo sapiens, Calu-1, 48 h, MTT, read-out: IC50 cell growth inhibition, Calu-1) of the same compound?
Answer: 5.55

Question: And the “resistance of Calu-1 cells to growth inhibition” value ([3]; relative to other cell lines)?
Answer: two- to three-fold

Question: What about the pIC50 (Cdk6-cyclin D1) of the same compound?
Answer: < 5.00

Question: What about the “induction of p53” value [4] of the same compound?
Answer: more than 10 fold

Question: What about the “levels of p21CIP1/WAF1 (p21)” value [4] of the same compound?
Answer: increase

Question: What about the “levels of p27KIP1 (p27)” value [4] of the same compound?
Answer: elevated

Question: What about the “Cdk1 and cyclin B1 protein levels” value ([4]; versus untreated control) of the same compound?
Answer: downregulated

Question: What about the pIC50 (Cdk9-cyclin T1) of the same compound?
Answer: < 3.00

Question: And the oral bioavailability [5]?
Answer: poor

Question: And the “plasma exposure after intravenous administration” value [5]?
Answer: good plasma exposure

Question: And the CL ([5]; 1.0 mg/kg intravenous)?
Answer: 95.8 ml/min per kg

Question: And the AUC(0-inf) [5, 6]?
Answer: 174 ng·h/mL

Question: And the AUC(0-t) [5, 6]?
Answer: 170 ng·h/mL

Question: What about the C0 [5, 6] of the same compound?
Answer: 888 ng/mL

Question: And the Cmax [5, 6]?
Answer: 413 ng/mL

Question: And the Vd [5, 6]?
Answer: 1.56 L/kg

Question: What about the half-life [5, 6] of the same compound?
Answer: 11.4 min

Question: What about the AUC(0-t) ([5]; male, mouse, plasma, oral, 10 mg/kg per os) of the same compound?
Answer: 17.7 ng·h/mL

Question: What about the pIC50 (IGF-1 R) of the same compound?
Answer: < 5.00
